Results from patent US7598279B2, “Neurotherapeutic azole compounds” (SK Holdings Co., Ltd., priority 2005, dated 2009).

Columns and labels:
Type in all cases: in vivo
mice [1] = assay: Maximal ElectroShock (MES)-induced tonic seizure test; conditions: Mus musculus; for ED50: read-out: Mice MES ED50 (mpk/peak time); for responders at 30 mg/kg: read-out: Mice MES Protection % (mpk/peak time)
Protocol: The “Maximal ElectroShock (MES)” test is a well-established pharmacological screening method for anticonvulsants against tonic-clonic seizures. The procedure employed in the MES test for anticonvulsants is as follows. The compounds to be tested were dissolved in 30% PEG400 and administered ip and po into animals. After the designated number of hours, maximal electroshock (50 mA, 60 Hz, 0.2 sec) was applied into animals via corneal electrodes using IITC Life Science model 11A Shocker. […] Median efficacy dose (ED50) levels were determined using three different dose levels with at least 8 mice in each group.

mice [2] = assay: Forced swimming test (FST); conditions: 30 min after dosing
Protocol: The “Forced swimming test (FST)” for antidepressant activity was also carried out. The procedure employed in the FST for antidepressant is as follows. The compounds to be tested were dissolved in 30% PEG400 and administered ip and po into animals. 30 min later, the immobility time during post 4 minutes of 6 minutes experiment time was measured.

mice [3] = assay: Pentylenetetrazol (PTZ)-induced clonic seizure test; conditions: Mus musculus; for responders at 30 mg/kg: read-out: Mice PTZ Protection % (mpk/peak time)
Protocol: The “Pentylenetetrazol (PTZ)” test for anticonvulsant and antianxiety activity was also carried out.
The procedure employed in the PTZ test is as follows. The compounds to be tested were dissolved in 30% PEG400 and administered ip and po into animals. After the designated number of hours, each animal was injected subcutaneously with 100 mg/kg of PTZ (CD97 dose) and observed for up to 30 minutes for the presence or absence of clonic spasms over 5 seconds. Median efficacy dose (ED50) levels were determined using three different dose levels with 8 mice in each group.

[4] = 3 mice, 30 mpk, 0.5, 1, 2, 4 hr

SMILES | ED50 (mice [1]; 0.5 h) [mg/kg] | Mice FST Reduction of immobility % (mice [2]; dose not given) [%] | further results
NC(=O)OC(Cn1ncnn1)c1ccc(Cl)cc1 (stereo not shown) [Example 5, Carbamic acid 1-(4-chloro-phenyl)-2-tetrazol-2-yl-ethyl ester] | 18.4 | 71.7 | –
NC(=O)OC(Cn1nccn1)c1ccc(Cl)cc1 (stereo not shown) [Example 10, Carbamic acid 1-(4-chloro-phenyl)-2-[1,2,3]triazol-2-yl-ethyl ester] | 21.3 | 45.1 | –
NC(=O)OC(Cn1nccn1)c1ccccc1C(F)(F)F (stereo not shown) [Example 39, Carbamic acid 2-[1,2,3]triazol-2-yl-1-(2-trifluoromethyl-phenyl)-ethyl ester] | 12.5 | – | –
NC(=O)O[C@@H](Cn1ncnn1)c1ccc(Cl)cc1 [Example 42, Carbamic acid (R)-1-(4-chloro-phenyl)-2-tetrazol-2-yl-ethyl ester] | 18.2 | 44.1 | –
NC(=O)O[C@@H](Cn1nccn1)c1ccc(Cl)c(Cl)c1 [Example 91, Carbamic acid (R)-1-(3,4-dichloro-phenyl)-2-[1,2,3]triazol-2-yl-ethyl ester] | 16 | 94.0 | –
NC(=O)OC(Cc1ccccc1)Cn1ncnn1 (stereo not shown) [Example 116, Carbamic acid 2-phenyl-1-tetrazol-2-ylmethyl-ethyl ester] | – | 30.0 | responders at 30 mg/kg (mice [3]; 2 h): 33.3%; responders at 30 mg/kg (mice [1]; 1 h): 100%
O=C(OC(Cn1ncnn1)c1ccccc1Cl)N1CCC(Cc2ccc(Cl)c(Cl)c2)CC1 (stereo not shown) [Example 175, 4-(3,4-Dichloro-benzyl)-piperidine-1-carboxylic acid 1-(2-chloro-phenyl)-2-tetrazol-2-yl-ethyl ester] | 20.2 | – | responders at 30 mg/kg (mice [3]; 4 h): 66.7%; Mice FST Reduction of immobility % (mice [2]): N.S
O=C(OC(Cn1ncnn1)c1ccccc1Cl)N1CCC(CCc2ccccc2)C1 (stereo not shown) [Example 181, 3-Phenethyl-pyrrolidine-1-carboxylic acid 1-(2-chloro-phenyl)-2-tetrazol-2-yl-ethyl ester] | 12.1 | 30.6 | responders at 30 mg/kg (mice [3]; 4 h): 33.3%
O=C(OC(Cn1ncnn1)c1cc(Cl)ccc1Cl)N1CCC(Cc2ccc(Cl)c(Cl)c2)CC1 (stereo not shown) [Example 191, 4-(3,4-Dichloro-benzyl)-piperidine-1-carboxylic acid 1-(2,5-dichloro-phenyl)-2-tetrazol-2-yl-ethyl ester] | – | 50.6 | ED50 (mice [3]; sc, read-out: Mice PTZ ED50 (mpk/peak time)): > 30 mg/kg; responders at 30 mg/kg (mice [1]; 4 h): 66.7%
O=C(OC(Cn1ncnn1)c1ccc(Cl)cc1Cl)N1CCC(Cc2ccc(Cl)c(Cl)c2)CC1 (stereo not shown) [Example 194, 4-(3,4-Dichloro-benzyl)-piperidine-1-carboxylic acid 1-(2,4-dichloro-phenyl)-2-tetrazol-2-yl-ethyl ester] | 11.9 | 53.4 | responders at 30 mg/kg (mice [3]; 2 h): 33.3%
O=C(OC(Cn1ncnn1)c1ccc(Cl)c(Cl)c1)N1CCC(Cc2ccc(Cl)c(Cl)c2)CC1 (stereo not shown) [Example 195, 4-(3,4-Dichloro-benzyl)-piperidine-1-carboxylic acid 1-(3,4-dichloro-phenyl)-2-tetrazol-2-yl-ethyl ester] | – | 31.9 | responders at 30 mg/kg (mice [3]; 3 mice, 30 mpk, 0.5, 1 hr): 33.3%; ED50 (mice [1]; mice, peak time 0.5 hr): 15.3 mg/kg
O=C(OC(Cn1ncnn1)c1ccccc1Cl)N1CCC(Cc2ccc(Cl)cc2)C1 (stereo not shown) [Example 196, 3-(4-Chloro-benzyl)-pyrrolidine-1-carboxylic acid 1-(2-chloro-phenyl)-2-tetrazol-2-yl-ethyl ester] | 15.3 | – | responders at 30 mg/kg (mice [3]; 4 h): 33.3%; Mice FST Reduction of immobility % (mice [2]): N.S
O=C(OC(Cn1ncnn1)c1ccccc1Cl)N1CCC(Cc2cc(C(F)(F)F)cc(C(F)(F)F)c2)CC1 (stereo not shown) [Example 197, 4-(3,5-Bis-trifluoromethyl-benzyl)-piperidine-1-carboxylic acid 1-(2-chloro-phenyl)-2-tetrazol-2-yl-ethyl ester] | 6.3 | – | responders at 30 mg/kg (mice [3]; 4 h): 100%; Mice FST Reduction of immobility % (mice [2]): N.S
O=C(OC(Cn1nccn1)c1ccccc1Cl)N1CCC(Cc2ccc(Cl)c(Cl)c2)CC1 (stereo not shown) [Example 200, 4-(3,4-Dichloro-benzyl)-piperidine-1-carboxylic acid 1-(2-chloro-phenyl)-2-[1,2,3]triazol-2-yl-ethyl ester] | – | 25.9 | responders at 30 mg/kg (mice [1]; 3 mice, 30 mpk, 0.5, 4 hr): 100%
O=C(OC(Cn1cnnn1)c1ccccc1Cl)N1CCC(Cc2ccc(Cl)c(Cl)c2)CC1 (stereo not shown) [Example 201, 4-(3,4-Dichloro-benzyl)-piperidine-1-carboxylic acid 1-(2-chloro-phenyl)-2-tetrazol-1-yl-ethyl ester] | – | 54.0 | responders at 30 mg/kg (mice [1]; 3 mice, 30 mpk, 1, 2, 4 hr): 100%
O=C(OC(Cn1ncnn1)c1cc(Cl)ccc1Cl)N1CCC(CCc2ccccc2)C1 (stereo not shown) [Example 202, 3-Phenethyl-pyrrolidine-1-carboxylic acid 1-(2,5-dichloro-phenyl)-2-tetrazol-2-yl-ethyl ester] | – | 81.2 | responders at 30 mg/kg (mice [3]; 3 mice, 30 mpk, 1, 4 hr): 33.3%; ED50 (mice [1]; mice, peak time 0.5 hr): 11.4 mg/kg
O=C(OC(Cn1ncnn1)c1ccc(Cl)cc1Cl)N1CCC(CCc2ccccc2)C1 (stereo not shown) [Example 203, 3-Phenethyl-pyrrolidine-1-carboxylic acid 1-(2,4-dichloro-phenyl)-2-tetrazol-2-yl-ethyl ester] | – | 44.0 | responders at 30 mg/kg (mice [1]; [4]): 100%
O=C(OC(Cn1ncnn1)c1ccc(Cl)c(Cl)c1)N1CCC(CCc2ccccc2)C1 (stereo not shown) [Example 204, 3-Phenethyl-pyrrolidine-1-carboxylic acid 1-(3,4-dichloro-phenyl)-2-tetrazol-2-yl-ethyl ester] | – | 51.2 | responders at 30 mg/kg (mice [1]; 3 mice, 30 mpk, 0.5, 1, 2 hr): 100%
O=C(OC(COc1ccc(Cl)cc1Cl)Cn1nccn1)N1CCC(CCc2ccccc2)C1 (stereo not shown) [Example 206, 3-Phenethyl-pyrrolidine-1-carboxylic acid 2-(2,4-dichloro-phenoxy)-1-[1,2,3]triazol-2-ylmethyl-ethyl ester] | – | 51.4 | responders at 30 mg/kg (mice [3]; 3 mice, 30 mpk, 2, 4 hr): 66.7%; responders at 30 mg/kg (mice [1]; [4]): 100%
O=C(OC(COc1ccc(Cl)c(Cl)c1)Cn1nccn1)N1CCC(CCc2ccccc2)C1 (stereo not shown) [Example 207, 3-Phenethyl-pyrrolidine-1-carboxylic acid 2-(3,4-dichloro-phenoxy)-1-[1,2,3]triazol-2-ylmethyl-ethyl ester] | – | 43.4 | responders at 30 mg/kg (mice [1]; 3 mice, 30 mpk, 0.5, 1, 4 hr): 100%
O=C(OC(COc1cc(Cl)ccc1Cl)Cn1ncnn1)N1CCC(CCc2ccccc2)C1 (stereo not shown) [Example 208, 3-Phenethyl-pyrrolidine-1-carboxylic acid 2-(2,5-dichloro-phenoxy)-1-tetrazol-2-ylmethyl-ethyl ester] | – | 48.2 | responders at 30 mg/kg (mice [3]; 3 mice, 30 mpk, 4 hr): 33.3%; responders at 30 mg/kg (mice [1]; 3 mice, 30 mpk, 0.5, 1, 4 hr): 100%
